The text below walks through data of paper PMC7582957, “A Fluorescence Polarization-Based High-Throughput Screen to Identify the First Small-Molecule Modulators of the Human Adenylyltransferase HYPE/FICD” (International Journal of Molecular Sciences, 2020).

Common to all, as to assay type: biochemical
Experiment [1] deals with T1, Δ102 HYPE (HYPE103-456) (Homo sapiens, UniProt Q9BVA6).
T1 construct: gene FICD; aa 103-456, lacks TM domain and N-terminus; His6-SUMO tag cleaved by ULP1; pSMT3, E. coli BL21-DE3-RILP; cobalt and size-exclusion purified
T1 sequence (Q9BVA6 103-456): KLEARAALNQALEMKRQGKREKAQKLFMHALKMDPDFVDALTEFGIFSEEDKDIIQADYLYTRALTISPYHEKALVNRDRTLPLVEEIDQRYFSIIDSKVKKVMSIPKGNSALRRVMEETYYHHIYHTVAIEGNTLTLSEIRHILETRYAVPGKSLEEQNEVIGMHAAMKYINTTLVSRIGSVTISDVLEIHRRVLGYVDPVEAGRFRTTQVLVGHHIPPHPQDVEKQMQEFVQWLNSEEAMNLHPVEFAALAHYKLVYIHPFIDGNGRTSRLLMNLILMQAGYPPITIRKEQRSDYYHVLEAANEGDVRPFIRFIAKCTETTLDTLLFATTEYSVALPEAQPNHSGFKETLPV
Briefly: fluorescence polarization autoAMPylation with Fl-ATP. The following applies: activator; detergent-less minimal buffer 50 mM HEPES pH 7.5, 1 mM MnCl2, 25 nM Fl-ATP, 0.4 µM enzyme, room temperature; unreliable. The source says: fluorescence polarization autoAMPylation with Fl-ATP on Δ102 HYPE (HYPE103-456) | robust dose-dependencies among all activators, with low micromolar EC50 values
In general terms: Polarisation of emitted light reports the rotation of a fluorescent probe.

Another experiment concerns the target T2, Δ45 HYPE (Homo sapiens, UniProt Q9BVA6).
T2 construct: gene FICD; aa 46-456, TM domain deleted; His6-SUMO tag cleaved by ULP1; pSMT3, E. coli BL21-DE3-RILP; cobalt and size-exclusion purified
T2 sequence (Q9BVA6 46-456): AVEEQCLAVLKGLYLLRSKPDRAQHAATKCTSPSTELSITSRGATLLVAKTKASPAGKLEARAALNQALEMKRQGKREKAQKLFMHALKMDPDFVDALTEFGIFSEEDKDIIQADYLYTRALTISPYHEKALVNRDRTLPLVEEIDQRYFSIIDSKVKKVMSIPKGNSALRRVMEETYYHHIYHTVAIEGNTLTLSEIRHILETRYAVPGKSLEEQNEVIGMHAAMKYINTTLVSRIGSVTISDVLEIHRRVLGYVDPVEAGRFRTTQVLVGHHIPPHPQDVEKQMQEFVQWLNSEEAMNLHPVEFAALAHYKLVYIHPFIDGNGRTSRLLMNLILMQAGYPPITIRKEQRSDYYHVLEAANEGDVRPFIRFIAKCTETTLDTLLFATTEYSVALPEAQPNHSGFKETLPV
Briefly: in-gel fluorescence autoAMPylation with Fl-ATP. The following applies: activator; same, with 0.1% Triton X-100.

Experiment [2] deals with T3, Δ102 HYPE (HYPE103-456) (Homo sapiens, UniProt Q9BVA6, E234G).
T3 construct: gene FICD; aa 103-456, lacks TM domain and N-terminus; His6-SUMO tag cleaved by ULP1; pSMT3, E. coli BL21-DE3-RILP; cobalt and size-exclusion purified
T3 sequence (Q9BVA6 103-456 E234G): T1 sequence (Q9BVA6 103-456) with E132G
Briefly: fluorescence polarization autoAMPylation with Fl-ATP. The source says:
fluorescence polarization autoAMPylation with Fl-ATP on Δ102 HYPE (HYPE103-456) | I1 and I3 were in the mid-micromolar range | we obtained a low micromolar inhibitory potency for I2

Positions count from the first letter of the chain named. pIC50: −log10 of the molar value.

For orientation: EC50 means the concentration at which the effect is half-maximal. Low values mean an effect from little substance, high ones a need for much substance. Compound `CCCCCCCCCCCCCCCC(O)C(N)CO` (racemic) [A2, DL-erythro-dihydrosphingosine] registered an EC50 at Δ102 HYPE (HYPE103-456) [1] of 15.415 µM.

`CCCCC(CC)CN1CN(CC(CC)CCCC)CC(C)(N)C1` (stereo not shown) [A3, Hexetidine] yielded a half-maximal effective concentration (EC50) on Δ102 HYPE (HYPE103-456) [1] of 13.144 µM.

As for `CCCCCCCCCCCCCCCC[N+](C)(C)CCN(Cc1ccc(OC)cc1)c1ncccn1` [A5, Thonzonium Bromide], at Δ102 HYPE (HYPE103-456) [1], the EC50 turned out to be 10.305 µM.

Take `CC(C)(C)c1ccc(-c2cc(C[C@H]3CNCC[C@H]3CC(=O)N3CCN(c4ccc(F)cc4)CC3)no2)cc1` [A6, NAT14–350426]: the “in-gel fluorescence autoAMPylation with Fl-ATP” value on Δ45 HYPE is “significant increase in bioactivity of A1 and A4–A6 (Figure 9D)”.

Broadly, the pIC50 is −log10 of the IC50, conventionally taken in molar units. Low readings indicate a large IC50, high ones a small IC50. Compound `Cc1cc(-c2ccc(N=Nc3ccc4c(S(=O)(=O)O)cc(S(=O)(=O)O)c(N)c4c3O)c(C)c2)ccc1N=Nc1ccc2c(S(=O)(=O)O)cc(S(=O)(=O)O)c(N)c2c1O` [I1, Evan’s Blue] had a pIC50 against Δ102 HYPE (HYPE103-456) [2] of 4.52.

On Δ102 HYPE (HYPE103-456) [2], `O=C(O)C1=CC(=C(c2ccc(O)c(C(=O)O)c2)c2ccc(O)c(C(=O)O)c2)C=CC1=O` [I2, Aurintricarboxylic Acid] gave a pIC50 of 6.46.

`COc1cc(-c2ccc(N=Nc3ccc4c(S(=O)(=O)O)cc(S(=O)(=O)O)c(N)c4c3O)c(OC)c2)ccc1N=Nc1ccc2c(S(=O)(=O)O)cc(S(=O)(=O)O)c(N)c2c1O` [I3, Chicago Sky Blue]: at Δ102 HYPE (HYPE103-456) [2], the negative-log IC50 (pIC50) was 4.65.
